# Key:
# [1] = test system: MDA-MB-231 tumors; assay: EC17 dose finding safety study, tumor-bearing mice; type: in vivo, NSG mice; details: for higher IFNγ production in mouse plasma vs CAR-T cells only: all EC17 regimens
# Experimental: All animal care and use were performed according to NIH guidelines and in compliance with protocols approved by the Purdue University Animal Use and Care Committee. Female 4 to 5-weeks-old NOD/SCID gamma (NSG™) mice (stock number: 005557) were purchased from The Jackson Laboratory (Bar Harbor, ME). Unless specifically indicated, all animals were maintained on a FA-deficient diet (TestDiet, St. Louis, MO) upon arrival and throughout the study. To establish subcutaneous xenografts, MDA-MB-231 and HOS-FRα were implanted in the right flank region at 2.5 × 10^6 and 1 × 10^6 cells per animal, respectively. For intravenous xenografts, THP1-FRβ cells were inoculated at 5 × 10^6 cells per animal. Subcutaneous tumors were measured 2–3 times per week with a caliper and calculated using the ellipsoidal formula (length x width^2)/2. […] All animal doses (CAR-T cells, EC17, sodium fluorescein) were given intravenously.
# In a therapeutic setting, EC17 CAM can theoretically be given before or after CAR-T cell injection ([33]). For all intended purposes here, we administered the first dose of EC17 2–3.5 days after CAR-T cells to allow for an observation period of human T cells in tumor-bearing mice. Two batches of unsorted E2-CAR-T cells (23% or 39% EGFRt+, 1:1 CD4/CD8) were used for in vivo studies. On the day of infusion for each experiment (day 0), frozen CAR-T cells were quickly thawed at 37°C, washed 2x with Dulbecco's 1X PBS (pH 7.4) and injected into the tail veil at desired EGFRt+ E2-CAR-T cell doses. In addition, a small aliquot of CAR-T cells was analyzed by flow cytometry for CD4 to CD8 ratio and differentiation status of CAR-T cells. On the first day of EC17 dose, tumor-bearing animals were randomly assigned into groups according to their tumor sizes or the same number of days post intravenous implantation (i.e., THP1-FRβ).
# For MDA-MB-231 studies, mice received a high dose (~10 million) of a “clinical facsimile” of E2-CAR-T cells (~39% EGFRt+) with a low differentiation profile. Two days later, we started them with 3 different treatment regimens of EC17 at an average tumor size of ~293 ± 39 mm^3. The EC17 dosing was given once-a-week (SIW) at 500 nmol/kg on Mondays, or as escalating doses of 5, 50, or 100, and 500 or 1,000 nmol/kg on Monday, Thursday, and Monday with a 6 day break in-between cycles. Control mice were left untreated (received CAR-T cells but no EC17). For comparison, a cohort of tumor-free littermates also received the same number of CAR-T cells without or with EC17 SIW at 500 nmol/kg. To study the effect of high dietary folate, two sets of NSG mice were placed on either a FA-replete diet (4 mg/kg, Envigo, Indianapolis, IN) or a FA-deficient diet (TestDiet, St. Louis, MO) upon arrival. On day 0, both sets of the mice received ~10 million of the same “clinical facsimile” CAR-T cells followed by no EC17 or EC17 SIW at 500 nmol/kg starting on day 3. On the first day of EC17 administration, MDA-MB-231 tumors size averaged around ~549 ± 184 mm^3 (280–918 mm^3) in FA-replete mice, and ~559 ± 165 mm^3 (356–961 mm^3) in FA-deficient mice.
# Depending on the CAR-T cell dose and how EC17 is administered, tumor-bearing mice receiving FITC-specific CAR-T cells can experience severe CRS and varying degrees of body weight loss ([27], [33], [34]). […] On the days immediately following each EC17 dose, animals were scored and rescue agents such as sodium fluorescein, folic acid and leucovorin were used to mitigate CRS toxicity ([33]). […]
# [2] = molecular target: T1, FRβ (Homo sapiens, UniProt P14207); assay: 3H-EC17 cell-based radioligand binding, CHO-β cells; details: ^3H-EC17, CHO-β cells, 2 h at 37°C, from molecules bound per cell
# T1 construct: expressed in transfected cells; host or cells: Chinese hamster ovary cells (CHO-β)
# Experimental: Unless otherwise noted, all FR+ and FR-negative cancer cell lines were, respectively, maintained in RPMI-1640 medium (Gibco BRL) supplemented with 10% heat-inactivated fetal calf serum without (FFRPMI) or with (RPMI) 2.4 μM folic acid (FA). KB (FRα-expressing human cervical carcinoma with HeLa markers) and CHO-β (Chinese hamster ovary cells transfected with human FRβ) were used as the sources of FRα and FRβ for radioligand binding assays, respectively ([18]). MDA-MB-231 represents a FRα+ subclone of human TNBC cell line. For AML studies, the green fluorescent protein (GFP)-expressing isogenic pairs of FRβ-positive (THP1-FRβ) and FR-negative (THP1-FG12) cell lines were kindly provided by Dr. Manohar Ratnam (The University of Toledo, Toledo, OH). […]
# The bispecific affinities of EC17 CAM were assessed using ^3H-EC17 in cell-based radioligand binding assays. […] The whole cell lysates were quantitated for the level of radioactivity and cellular protein content by standard Pierce BCA protein assay. The number of ^3H-EC17 molecules bound per cell was calculated to determine the dissociation constants (Kd) for FRα (KB) and FRβ (CHO-β), respectively. […] Afterwards, the cells were washed 4x with PBS, lysed with 0.1% Triton X-100 plus 0.1 N NaOH and counted in a scintillation counter. […]
# T1 sequence (P14207 17-255): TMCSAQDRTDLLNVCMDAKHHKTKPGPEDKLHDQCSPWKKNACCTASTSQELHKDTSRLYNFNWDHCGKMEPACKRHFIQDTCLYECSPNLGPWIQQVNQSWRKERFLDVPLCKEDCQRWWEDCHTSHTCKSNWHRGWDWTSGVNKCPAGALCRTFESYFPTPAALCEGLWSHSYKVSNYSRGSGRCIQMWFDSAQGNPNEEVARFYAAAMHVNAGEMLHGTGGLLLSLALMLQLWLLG
structure (smiles),measurement,setting,value
"Nc1nc2ncc(CNc3ccc(C(=O)NC(CCC(=O)NCCNC(=S)Nc4ccc(-c5c6ccc(=O)cc-6oc6cc(O)ccc56)c(C(=O)O)c4)C(=O)O)cc3)nc2c(=O)[nH]1 (stereo not drawn) [EC17, FA-(γ)-ethylenediamine-FITC]",cures,"[1]; EC17-treated cohorts (SIW 500, 5/50/500, 5/100/1000 nmol/kg), ~10 million E2-CAR-T cells",100%
same,higher IFNγ production in mouse plasma vs CAR-T cells only,"[1]; day 11, ~20 h after previous EC17 dose, ~10 million E2-CAR-T cells",~ 30 x
same,higher IFNγ production in mouse plasma vs CAR-T cells only,"[1]; day 12, ~42 h after previous EC17 dose, ~10 million E2-CAR-T cells",~ 10 x
same,persistence of CAR-T cells in mouse blood,"[1]; tumor-bearing animals, ~10 million E2-CAR-T cells plus EC17, last measurement",up to 54 days
same,CRS grade,"[1]; tumor-bearing, ~10 million E2-CAR-T cells, continued EC17 dosing independent of the regimen, 0–5 scale",2-3
same,Kd,[2],0.8 nM

# Reference: publication PMC6433934, “Preclinical Evaluation of Bispecific Adaptor Molecule Controlled Folate Receptor CAR-T Cell Therapy With Special Focus on Pediatric Malignancies” (Frontiers in Oncology, 2019)
